Key:
[1] = Inhibition of Escherichia coli IspE by CDP-ME-coupled photometric analysis
[2] = Inhibition of recombinant Pseudomonas aeruginosa DXS expressed in Escherichia coli by spectrophotometric analysis
[3] = Inhibition of Escherichia coli DXS
[4] = Inhibition of recombinant Plasmodium falciparum IspF measured for 30 mins by photometric plate reader analysis
[5] = molecular target: 2-C-methyl-D-erythritol 2,4-cyclodiphosphate synthase (Mycobacterium tuberculosis (strain ATCC 25618 / H37Rv), UniProt P9WKG5); experiment: Inhibition of Mycobacterium tuberculosis H37Rv IspF expressed in Escherichia coli XL1-Blue measured for 30 mins by photometric plate reader analysis
[6] = Inhibition of Escherichia coli IspC
[7] = molecular target: T1, 2-C-methyl-D-erythritol 4-phosphate cytidylyltransferase, chloroplastic (Arabidopsis thaliana, UniProt P69834); experiment: Inhibition of Arabidopsis thaliana IspD
T1 sequence (P69834 whole entry): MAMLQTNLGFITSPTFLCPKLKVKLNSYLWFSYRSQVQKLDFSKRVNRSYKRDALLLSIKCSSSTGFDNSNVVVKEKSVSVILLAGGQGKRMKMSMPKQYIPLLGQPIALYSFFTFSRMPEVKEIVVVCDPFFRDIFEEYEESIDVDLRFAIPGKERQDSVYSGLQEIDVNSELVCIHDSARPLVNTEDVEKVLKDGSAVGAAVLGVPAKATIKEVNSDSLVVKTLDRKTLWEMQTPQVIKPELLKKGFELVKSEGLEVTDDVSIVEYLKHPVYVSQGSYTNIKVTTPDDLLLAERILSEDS

[8] = Competitive inhibition of Escherichia coli IspG expressed in Escherichia coli BL21(DE3) using MEcPP as substrate preincubated for 10 mins followed by substrate addition by Michaelis-Menten equation analysis
[9] = Inhibition of Chlamydomonas DXS
[10] = Inhibition of Escherichia coli IspF
[11] = Inhibition of Escherichia coli IspE
[12] = Inhibition of Escherichia coli IspF by fluorescence titration assay
[13] = Inhibition of Aquifex aeolicus IspH expressed in Escherichia coli BL21(DE3)
[14] = Inhibition of IspD (unknown origin)
[15] = Inhibition of Aquifex aeolicus IspH expressed in Escherichia coli BL21(DE3) using HMBPP as substrate preincubated for 10 mins followed by substrate addition

Sequence of 2-C-methyl-D-erythritol 2,4-cyclodiphosphate synthase (P9WKG5 whole entry): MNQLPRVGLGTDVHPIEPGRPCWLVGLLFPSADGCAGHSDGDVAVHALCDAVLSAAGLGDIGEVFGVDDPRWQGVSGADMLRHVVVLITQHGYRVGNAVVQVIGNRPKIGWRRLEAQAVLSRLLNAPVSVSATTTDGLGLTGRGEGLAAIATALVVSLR

**Q.** With Nc1ccn([C@@H]2O[C@H](CNC(=O)CCc3nc4ccccc4[nH]3)[C@@H](O)[C@H]2O)c(=O)n1 as the molecule, how does the IC50 [1] read?
**A.** 1670 µM

**Q.** Which IC50 [2] does the source give for O=C(O)C(=O)CF here?
**A.** 400 µM

**Q.** What about the IC50 [3] of the same molecule?
**A.** 80 µM

**Q.** What does the source list for CCOC(=O)C1=C(C)N=c2s/c(=C\c3cc(Br)c(O)c(Br)c3)c(=O)n2C1c1cccs1 (stereo unspecified)?
**A.** IC50 [4]: 9.6 µM; IC50 [5]: 6.1 µM

**Q.** For CC(=O)N(O)CCCP(=O)(O)O, which IC50 [6] is on record?
**A.** 0.05 µM

**Q.** With Oc1c(Cc2ccccc2)c(Cl)nc2ncnn12 as the molecule, how does the IC50 [7] read?
**A.** 0.14 µM

**Q.** Which IC50 [8] does the source give for C#CCOP(=O)(O)OP(=O)(O)O [PROP-2-YNYL DIPHOSPHATE] here?
**A.** 0.75 µM

**Q.** With O=CN(O)CCCP(=O)(O)O [FOSMIDOMYCIN] as the molecule, how does the IC50 [6] read?
**A.** 0.035 µM

**Q.** For CC1(C)C(=O)ON(Cc2ccccc2Cl)C1=O [KETOCLOMAZONE], which IC50 [9] is on record?
**A.** 100 µM

**Q.** Which IC50 [10] does the source give for Nc1ccn(Cc2ccc(CNC(=O)c3ccccc3)c3ccccc23)c(=O)n1 here?
**A.** 450 µM

**Q.** Which IC50 [11] does the source give for CCS(=O)(=O)NCC#Cc1cn(C2CCCS2)c(=O)nc1N (stereo unspecified) here?
**A.** 6 µM

**Q.** For CN(C)c1cccc2c(S(=O)(=O)NCCOP(=O)(O)OP(=O)(O)OC[C@H]3O[C@@H](n4ccc(N)nc4=O)[C@H](O)[C@@H]3O)cccc12, which IC50 [12] is on record?
**A.** 3000 µM

**Q.** Which IC50 [13] does the source give for O=P(O)(O)OP(=O)(O)OCCc1cccnc1 [PYRIDIN-3-YL-ETHYL-DIPHOSPHATE] here?
**A.** 9.1 µM

**Q.** With O=P(O)(O)OC[C@@H](O)[C@@H](O)CO as the molecule, how does the IC50 [14] read?
**A.** 1360 µM

**Q.** For C#CCCOP(=O)(O)OP(=O)(O)O [BUT-3-YNYL DIPHOSPHATE], which IC50 [15] is on record?
**A.** 0.45 µM
